Measurements published in patent publication US6465522B1, “Anthraquinone anticancer drugs” (priority 1998, dated 2002).
Like-named read-outs stand apart in the source and are kept apart here.

Columns and labels:
Format in all cases: cell-based
A2780 = test: MTT growth inhibition, A2780 parental ovarian cancer cell line; settings: MTT assay, 24 hour drug exposure, mean of triplicate, read-out: Growth Inhibition of Ovarian Cancer Cell Lines (IC50/nM) A2780
Procedure: (§1) The cells used for the anticancer activity measurements were the parental ovarian cell line designated as A2780, the doxorubicin-resistant variant designated as 2780AD, and the cisplatin-resistant variant designated as 2780CP (also known as CP70). Drug sensitivity in these cell lines was measured by the standard MTT assay (Carmichael et al., 1987, Cancer Research, 47: 936) with a 24 hour drug exposure time. The values obtained are mean values of triplicate measurements.

2780CP = test: MTT growth inhibition, 2780CP cisplatin resistant ovarian cancer cell line
Procedure: as §1

2780AD = test: MTT growth inhibition, 2780AD adriamycin (doxorubicin) resistant ovarian cancer cell line
Procedure: as §1

SKOV-3 = test: Antitumour activity in drug resistant ovarian cancer cell line SKOV-3; settings: SKOV-3 drug resistant ovarian cancer cell line
CH1cisR = test: Antitumour activity in drug resistant ovarian cancer cell line CH1cisR
[1] = 2780CP cisplatin resistant variant, MTT assay, 24 hour drug exposure, mean of triplicate, read-out: Growth Inhibition of Ovarian Cancer Cell Lines (IC50/nM) 2780CP
[2] = 2780AD adriamycin resistant variant, MTT assay, 24 hour drug exposure, mean of triplicate, read-out: Growth Inhibition of Ovarian Cancer Cell Lines (IC50/nM) 2780AD

Row | SMILES | IC50 (A2780; Homo sapiens) [nM] | IC50 (2780CP; [1]) [nM] | IC50 (2780AD; [2]) [nM] | IC50 (A2780) [nM] | IC50 (SKOV-3) [nM] | IC50 (CH1cisR) [nM] | IC50 (2780CP; 2780CP, read-out: IC50 2780CP) [nM] | IC50 (2780AD; 2780AD, read-out: IC50 2780AD) [nM]
1 | COc1cccc2c1C(=O)c1c(O)c3c(c(O)c1C2=O)C[C@@](O)(C(=O)CO)C[C@@H]3O[C@H]1C[C@H](N)[C@H](O)[C@H](C)O1 [Adriamycin, adriamycin] | 5 ± 1.1 | 13.3 ± 0.9 | 4860 ± 510 | – | – | – | – | –
2 | N.N.[Cl][Pt][Cl] [Cisplatin, cisplatin] | – | 2620 ± 730 | 3020 ± 220 | 340 ± 60 | – | – | – | –
3 | CN(C)CCNc1ccc(NCCN(CCCl)CCCl)c2c1C(=O)c1c(O)ccc(O)c1C2=O [Compound (2)] | – | 11.8 ± 1.4 | – | 4 ± 0.6 | 490 | 19 | 12 | 16
